Laboratory results reported in patent US20120064219A1, “EXTRUDED PARTICLES” (Firmenich SA, priority 2009, published 2012).
Peptide text beside a SMILES is read from it.

Assay: LC-MS analysis of saliva samples of panelists chewing the gums
Assay type: in vivo
Experimental: 3 panelists were given various samples of chewing gum prepared above and instructed to chew the gums for 60 minutes. At various intervals, a saliva sample was taken from each panelist, diluted 50 times in water and then analysed by standard LC-MS to confirm the amount of sweetening component remaining in the mouth.

[1] = encapsulated form in chewing gum

effect of encapsulation on the release profile compared to the unencapsulated form (chewing gum, saliva) | release profile in saliva (in words) (unencapsulated form in chewing gum) | SMILES | release profile in saliva (in words) [1]
little effect | – | CC1=CC(=O)[N-]S(=O)(=O)O1.[K+] [Acesulfame K] | –
– | – | COC(=O)[C@H](Cc1ccccc1)NC(=O)[C@@H](N)CC(=O)O [aspartame] (H-Asp-Phe-OMe) | releasing at a surprisingly stable rate for up to 40 minutes
– | diminishes rapidly almost immediately | OC[C@H]1O[C@H](O[C@]2(CCl)O[C@H](CCl)[C@@H](O)[C@@H]2O)[C@H](O)[C@@H](O)[C@H]1Cl [sucralose] | remains remarkably stable for at least until 20 minutes
